Laboratory results from patent US11725036B2, “Modified lipidated relaxin B chain peptides and their therapeutic use” (Sanofi, priority 2018, dated 2023).
Starred links: 1 amine or outer side, 2 acyl side, 3 side chain; linkers in the order of their positions; H or OH if unused. Non-standard residues stand in square brackets, D forms with d. Residues, ends and D or L forms follow the SMILES beside them. Groups on a side chain read outwards from the residue. *: point of attachment. X3 = CCCCCCCCCCCCCCCCCC(=O)N[C@@H](CCC(=O)N[C@@H](CCC(=O)N[C@@H](CCC(=O)NCCCOCCOCCOCCCNC(=O)CCC(=O)NCCCOCCOCCOCCCNC(=O)CCC(=O)NCCCOCCOCCOCCCN*)C(=O)O)C(=O)O)C(=O)O; X1 = CCCCCCCCCCCCCCCC(=O)N[C@@H](CCC(=O)N[C@@H](CCC(=O)N[C@@H](CCC(=O)NCCCOCCOCCOCCCNC(=O)CCC(=O)NCCCOCCOCCOCCCNC(=O)CCC(=O)NCCCOCCOCCOCCCN*)C(=O)O)C(=O)O)C(=O)O; γGlu = O=C(O)[C@H](CCC(=O)[*:2])N[*:1]; Palmitoyl = CCCCCCCCCCCCCCCC(=O)*; αMeF = C[C@](N)(Cc1ccccc1)C(=O)O; Suc = O=C(CCC(=O)[*:2])[*:1]; αMeK = C[C@](N)(CCCCN)C(=O)O; AEEA = NCCOCCOCC(=O)O; Aib = CC(C)(N)C(=O)O

Target: T1, RXFP1 (Homo sapiens, UniProt Q9HBX9)
T1 construct: OVCAR5 cells expressing endogenous RXFP1; endogenous in cells; host or cells: OVCAR5
T1 sequence (Q9HBX9 1-757): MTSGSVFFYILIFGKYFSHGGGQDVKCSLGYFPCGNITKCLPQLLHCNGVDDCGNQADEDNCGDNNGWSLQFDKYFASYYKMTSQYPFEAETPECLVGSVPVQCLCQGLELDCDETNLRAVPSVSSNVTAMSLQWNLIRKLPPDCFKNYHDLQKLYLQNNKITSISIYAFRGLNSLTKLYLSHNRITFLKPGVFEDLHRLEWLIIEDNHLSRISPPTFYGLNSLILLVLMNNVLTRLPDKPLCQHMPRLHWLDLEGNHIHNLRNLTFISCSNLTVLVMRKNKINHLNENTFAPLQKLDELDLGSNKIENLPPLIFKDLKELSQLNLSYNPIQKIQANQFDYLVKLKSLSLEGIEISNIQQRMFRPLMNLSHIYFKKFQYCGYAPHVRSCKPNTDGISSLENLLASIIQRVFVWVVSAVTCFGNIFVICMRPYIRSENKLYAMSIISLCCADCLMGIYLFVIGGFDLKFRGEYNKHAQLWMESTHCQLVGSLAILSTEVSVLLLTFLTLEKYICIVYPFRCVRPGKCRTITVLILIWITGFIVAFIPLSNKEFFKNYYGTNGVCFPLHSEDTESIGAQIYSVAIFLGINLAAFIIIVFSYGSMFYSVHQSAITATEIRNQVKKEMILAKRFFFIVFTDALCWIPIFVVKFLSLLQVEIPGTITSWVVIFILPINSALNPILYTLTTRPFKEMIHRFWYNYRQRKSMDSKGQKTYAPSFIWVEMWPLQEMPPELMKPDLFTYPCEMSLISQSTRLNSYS
Assay: OVCAR5 cAMP assay (HTRF)
Format: cell-based
Settings: for EC50: OVCAR 5 cells expressing endogenous RXFP1, cAMP readout; for Emax: OVCAR 5 cells, maximal cAMP relative to H2-relaxin
Summary of the method: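 Peptide agonism measured as intracellular cAMP (HTRF) after 30 min at 37° C in serum-free medium, following 40 min 1 mM IBMX preincubation of OVCAR5 cells. Nonlinear regression gave EC50; Emax % = 100 × compound maximal cAMP / H2-relaxin maximal cAMP.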

SMILES: CCCCCCCCCCCCCCCC(=O)N[C@@H](CCC(=O)N[C@@H](CCC(=O)N[C@@H](CCC(=O)NCCCOCCOCCOCCCNC(=O)CCC(=O)NCCCOCCOCCOCCCNC(=O)CCC(=O)NCCCOCCOCCOCCCNC(=O)CCC(=O)NCCCC[C@H](NC(=O)CNC(=O)[C@H](CCC(=O)O)NC(=O)C(C)(C)NC(=O)C(C)(C)NC(=O)[C@@H](NC(=O)[C@H](CCCCNC(C)=O)NC(=O)[C@H](C)NC(=O)[C@H](CCCNC(=N)N)NC(=O)[C@@H](NC(=O)[C@H](CCCCN)NC(=O)[C@H](CCC(=O)O)NC(=O)[C@H](CCCNC(=N)N)NC(=O)CNC(=O)[C@H](CCC(=O)O)NC(=O)[C@H](CC(C)C)NC(C)=O)C(C)C)[C@@H](C)CC)C(=O)N[C@@H](CO)C(=O)N[C@H](C(=O)N[C@@H](Cc1c[nH]c2ccccc12)C(=O)N[C@@H](CO)C(=O)NC(C)(C)C(=O)N[C@@H](CCCNC(=N)N)C(=O)N[C@@H](CCCCNC(C)=O)C(=O)N[C@@H](CCCNC(=N)N)C(N)=O)[C@@H](C)O)C(=O)O)C(=O)O)C(=O)O [compound 69] (Ac-LEGREKVRAK(Ac)I[Aib][Aib]EGK([Suc-X1])STWS[Aib]RK(Ac)R-NH2)
- EC50: 0.78 nM
- Emax: 97%

SMILES: CCCCCCCCCCCCCCCC(=O)N[C@@H](CCC(=O)N[C@@H](CCC(=O)N[C@@H](CCC(=O)NCCCOCCOCCOCCCNC(=O)CCC(=O)NCCCOCCOCCOCCCNC(=O)CCC(=O)NCCCOCCOCCOCCCNC(=O)CCC(=O)NCCCC[C@H](NC(=O)CNC(=O)[C@H](CCC(=O)O)NC(=O)C(C)(C)NC(=O)C(C)(C)NC(=O)[C@@H](NC(=O)[C@H](CCCCNC(C)=O)NC(=O)[C@H](C)NC(=O)[C@H](CCCNC(=N)N)NC(=O)[C@@H](NC(=O)[C@H](CCCCN)NC(=O)[C@H](CCC(=O)O)NC(=O)[C@H](CCCNC(=N)N)NC(=O)CNC(=O)[C@H](CCC(=O)O)NC(=O)[C@H](CC(C)C)NC(C)=O)C(C)C)[C@@H](C)CC)C(=O)N[C@@H](CO)C(=O)N[C@H](C(=O)N[C@@H](Cc1ccccc1)C(=O)N[C@H](C(=O)N[C@@H](CCCNC(=N)N)C(=O)N[C@@H](CCCNC(=N)N)C(=O)N[C@@H](C)C(=O)N[C@@H](CCCCNC(C)=O)C(N)=O)C(C)C)[C@@H](C)O)C(=O)O)C(=O)O)C(=O)O [compound 94] (Ac-LEGREKVRAK(Ac)I[Aib][Aib]EGK([Suc-X1])STFVRRAK(Ac)-NH2)
- EC50: 1.74 nM
- Emax: 88%

SMILES: CCCCCCCCCCCCCCCCCC(=O)N[C@@H](CCC(=O)N[C@@H](CCC(=O)N[C@@H](CCC(=O)NCCCOCCOCCOCCCNC(=O)CCC(=O)NCCCOCCOCCOCCCNC(=O)CCC(=O)NCCCOCCOCCOCCCNC(=O)CCC(=O)NCCCC[C@H](NC(=O)CNC(=O)[C@H](CCC(=O)O)NC(=O)C(C)(C)NC(=O)C(C)(C)NC(=O)[C@@H](NC(=O)[C@H](CCCCNC(C)=O)NC(=O)[C@H](C)NC(=O)[C@H](CCCNC(=N)N)NC(=O)[C@@H](NC(=O)[C@H](CCCCN)NC(=O)[C@H](CCC(=O)O)NC(=O)[C@H](CCCNC(=N)N)NC(=O)CNC(=O)[C@H](CCC(=O)O)NC(=O)[C@H](CC(C)C)NC(C)=O)C(C)C)[C@@H](C)CC)C(=O)N[C@@H](CO)C(=O)N[C@H](C(=O)N[C@@H](Cc1ccccc1)C(=O)N[C@@H](CO)C(=O)NC(C)(C)C(=O)N[C@@H](CCCNC(=N)N)C(=O)N[C@@H](CCCCN)C(=O)N[C@@H](CCCCNC(C)=O)C(N)=O)[C@@H](C)O)C(=O)O)C(=O)O)C(=O)O [compound 61] (Ac-LEGREKVRAK(Ac)I[Aib][Aib]EGK([Suc-X3])STFS[Aib]RKK(Ac)-NH2)
- EC50: 0.1 nM
- Emax: 97%

SMILES: CCCCCCCCCCCCCCCC(=O)N[C@@H](CCC(=O)N[C@@H](CCC(=O)N[C@@H](CCC(=O)NCCCOCCOCCOCCCNC(=O)CCC(=O)NCCCOCCOCCOCCCNC(=O)CCC(=O)NCCCOCCOCCOCCCNC(=O)CCC(=O)NCCCC[C@H](NC(=O)CNC(=O)[C@H](CCC(=O)O)NC(=O)C(C)(C)NC(=O)C(C)(C)NC(=O)[C@@H](NC(=O)[C@H](CCCCNC(C)=O)NC(=O)[C@H](C)NC(=O)[C@H](CCCNC(=N)N)NC(=O)[C@@H](NC(=O)[C@H](CCCCN)NC(=O)[C@H](CCC(=O)O)NC(=O)[C@H](CCCNC(=N)N)NC(=O)CNC(=O)[C@H](CCC(=O)O)NC(=O)[C@H](CC(C)C)NC(C)=O)C(C)C)[C@@H](C)CC)C(=O)N[C@@H](CO)C(=O)N[C@H](C(=O)N[C@@](C)(Cc1ccccc1)C(=O)N[C@@H](CO)C(=O)N[C@@H](CCCNC(=N)N)C(=O)N[C@@H](CCCNC(=N)N)C(=O)N[C@@H](C)C(=O)N[C@@H](CCCCNC(C)=O)C(N)=O)[C@@H](C)O)C(=O)O)C(=O)O)C(=O)O [compound 89] (Ac-LEGREKVRAK(Ac)I[Aib][Aib]EGK([Suc-X1])ST[αMeF]SRRAK(Ac)-NH2)
- EC50: 0.1 nM
- Emax: 97%

SMILES: CCCCCCCCCCCCCCCC(=O)N[C@@H](CCC(=O)N[C@@H](CCC(=O)N[C@@H](CCC(=O)NCCCOCCOCCOCCCNC(=O)CCC(=O)NCCCOCCOCCOCCCNC(=O)CCC(=O)NCCCOCCOCCOCCCNC(=O)CCC(=O)NCCCC[C@H](NC(=O)CNC(=O)[C@H](CCC(=O)O)NC(=O)[C@@H](NC(=O)C(C)(C)NC(=O)[C@@H](NC(=O)[C@H](CCCCNC(C)=O)NC(=O)[C@H](C)NC(=O)[C@H](CCCNC(=N)N)NC(=O)[C@@H](NC(=O)[C@H](CCCCN)NC(=O)[C@H](CCC(=O)O)NC(=O)[C@H](CCCNC(=N)N)NC(=O)CNC(=O)[C@H](CCC(=O)O)NC(=O)[C@H](CC(C)C)NC(C)=O)C(C)C)[C@@H](C)CC)[C@@H](C)CC)C(=O)N[C@@H](CO)C(=O)N[C@H](C(=O)N[C@@H](Cc1ccccc1)C(=O)N[C@@H](CO)C(=O)N[C@@](C)(CCCCN)C(=O)N[C@@H](CCCNC(=N)N)C(=O)N[C@@H](C)C(=O)N[C@@H](CCCCNC(C)=O)C(N)=O)[C@@H](C)O)C(=O)O)C(=O)O)C(=O)O [compound 84] (Ac-LEGREKVRAK(Ac)I[Aib]IEGK([Suc-X1])STFS[αMeK]RAK(Ac)-NH2)
- EC50: 0.1 nM
- Emax: 95%

SMILES: CCCCCCCCCCCCCCCC(=O)N[C@@H](CCC(=O)N[C@@H](CCC(=O)N[C@@H](CCC(=O)NCCCOCCOCCOCCCNC(=O)CCC(=O)NCCCOCCOCCOCCCNC(=O)CCC(=O)NCCCOCCOCCOCCCNC(=O)CCC(=O)NCCCC[C@H](NC(=O)CNC(=O)[C@H](CCC(=O)O)NC(=O)C(C)(C)NC(=O)C(C)(C)NC(=O)[C@@H](NC(=O)[C@H](CCCCNC(C)=O)NC(=O)[C@H](C)NC(=O)[C@H](CCCNC(=N)N)NC(=O)[C@@H](NC(=O)[C@H](CCCCN)NC(=O)[C@H](CCC(=O)O)NC(=O)[C@H](CCCNC(=N)N)NC(=O)CNC(=O)[C@H](CCC(=O)O)NC(=O)[C@H](CC(C)C)NC(C)=O)C(C)C)[C@@H](C)CC)C(=O)N[C@@H](CO)C(=O)N[C@H](C(=O)N[C@@H](Cc1c[nH]c2ccccc12)C(=O)N[C@@H](CO)C(=O)NC(C)(C)C(=O)N[C@@H](CCCNC(=N)N)C(=O)N[C@@H](CCCNC(=N)N)C(=O)N[C@@H](CCCCNC(C)=O)C(N)=O)[C@@H](C)O)C(=O)O)C(=O)O)C(=O)O [compound 31] (Ac-LEGREKVRAK(Ac)I[Aib][Aib]EGK([Suc-X1])STWS[Aib]RRK(Ac)-NH2)
- Emax: 94%

SMILES: CCCCCCCCCCCCCCCC(=O)N[C@@H](CCC(=O)N[C@@H](CCC(=O)N[C@@H](CCC(=O)NCCOCCOCC(=O)NCCOCCOCC(=O)NCCOCCOCC(=O)NCCOCCOCC(=O)NCCOCCOCC(=O)NCCCC[C@H](NC(=O)CNC(=O)[C@H](CCC(=O)O)NC(=O)C(C)(C)NC(=O)C(C)(C)NC(=O)[C@@H](NC(=O)[C@H](CCCCNC(C)=O)NC(=O)[C@H](C)NC(=O)[C@H](CCCNC(=N)N)NC(=O)[C@@H](NC(=O)[C@H](CCCCN)NC(=O)[C@H](CCC(=O)O)NC(=O)[C@H](CCCNC(=N)N)NC(=O)CNC(=O)[C@H](CCC(=O)O)NC(=O)[C@H](CC(C)C)NC(C)=O)C(C)C)[C@@H](C)CC)C(=O)N[C@@H](CO)C(=O)N[C@H](C(=O)N[C@@H](Cc1ccccc1)C(=O)N[C@@H](CO)C(=O)N[C@@](C)(CCCCN)C(=O)N[C@@H](CCCNC(=N)N)C(=O)N[C@@H](C)C(=O)N[C@@H](CCCCNC(C)=O)C(N)=O)[C@@H](C)O)C(=O)O)C(=O)O)C(=O)O [compound 45] (Ac-LEGREKVRAK(Ac)I[Aib][Aib]EGK([AEEA-AEEA-AEEA-AEEA-AEEA-γGlu-γGlu-γGlu-Palmitoyl])STFS[αMeK]RAK(Ac)-NH2)
- EC50: 0.45 nM
- Emax: 96%
